Test systems include HL-60(TB) leukemia; HS 578T breast; IGROV1 ovarian; K-562 leukemia; M14 melanoma; OVCAR-5 ovarian; SR leukemia; T-47D breast; UO-31 renal; UACC-257 melanoma.
What all share (experiment): growth of human tumour cells (NCI), 48 h

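Growth conditions: 96-well plates. Treatment: test compound, 48 hours, 5 concentrations. Analysis: linear interpolation between bracketing concentrations; unreached endpoints set to highest concentration. Here, GI50 denotes the concentration required for 50% inhibition of growth. At the TGI there is no net growth.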

For `COc1ccc2[nH]cc(-c3nc(-c4c[nH]c5ncccc45)cs3)c2c1`, the GI50 in the experiment with HL-60(TB) leukemia is 1.81 µM; with HS 578T breast, 4.17 µM; in the experiment on IGROV1 ovarian, 5.46 µM; with K-562 leukemia, 2.68 µM; in the experiment on M14 melanoma, 2.99 µM; in the experiment with OVCAR-5 ovarian it was above 100 µM. For the same molecule, the GI50 with SR leukemia is 2.91 µM; in the experiment with T-47D breast, 6.47 µM; in the experiment with UO-31 renal it was 1.41 µM. Besides, the TGI in the experiment with HL-60(TB) leukemia, in the experiment on HS 578T breast, in the experiment on IGROV1 ovarian, in the experiment with K-562 leukemia, in the experiment with M14 melanoma and in the experiment with OVCAR-5 ovarian was above 100 µM throughout. Besides, the TGI with SR leukemia, in the experiment with T-47D breast and in the experiment on UO-31 renal was above 100 µM throughout.
With `CCSc1[nH]c(Nc2nc(-c3ccccc3)n(-c3ccccc3)n2)c(C(N)=O)c1C(N)=O`, the TGI in the experiment on HL-60(TB) leukemia, with IGROV1 ovarian, with K-562 leukemia, in the experiment with M14 melanoma, in the experiment with SR leukemia and with T-47D breast was above 10 µM each time. Moreover, the TGI in the experiment with UACC-257 melanoma is above 10 µM.
As for `COC12C=C/C(=C(/C(=O)OCc3ccncc3)C(=O)CCCCCCCCC3(OC)C=C/C(=C(/C(=O)OCc4ccncc4)C(=O)CCCCCCCC1)O3)O2`, the GI50 was 0.371 µM with HL-60(TB) leukemia; 1.75 µM in the experiment with HS 578T breast; 0.316 µM in the experiment on IGROV1 ovarian; 0.17 µM in the experiment on M14 melanoma; 0.87 µM in the experiment on OVCAR-5 ovarian; 0.191 µM with SR leukemia. For the same molecule, the results for the GI50 in the experiment with T-47D breast, in the experiment with UACC-257 melanoma and with UO-31 renal were 0.706 µM, 1.14 µM and 0.641 µM, respectively. For the same molecule, the TGI in the experiment with HL-60(TB) leukemia was 1.96 µM; in the experiment on HS 578T breast it was 15.4 µM; in the experiment with IGROV1 ovarian, 2.14 µM; in the experiment with M14 melanoma it was 0.574 µM; with OVCAR-5 ovarian it was 4.6 µM; in the experiment on SR leukemia it was 7.01 µM. The TGI in the experiment on T-47D breast was 21.5 µM; in the experiment on UACC-257 melanoma, 4.49 µM; in the experiment with UO-31 renal, 1.4 µM.
Take `O=c1cc(-c2ccccc2)[nH]c2c(S)cccc12`: the TGI with HL-60(TB) leukemia, in the experiment with HS 578T breast, in the experiment with IGROV1 ovarian, in the experiment on K-562 leukemia, in the experiment with M14 melanoma and with OVCAR-5 ovarian was above 100 µM throughout. The TGI in the experiment on SR leukemia, with T-47D breast and in the experiment with UACC-257 melanoma was above 100 µM throughout.
Take `C1CSCCSCCS1`: the TGI with HL-60(TB) leukemia, with IGROV1 ovarian, in the experiment with K-562 leukemia, in the experiment with M14 melanoma, with OVCAR-5 ovarian and with SR leukemia was above 100 µM throughout. Further, the TGI in the experiment with T-47D breast, in the experiment on UACC-257 melanoma and in the experiment on UO-31 renal was above 100 µM throughout.
On to `COc1cccc2c1C(=O)c1c(O)c3c(c(O)c1C2=O)CC(O)(/C(C)=N/NC(=O)CCC(=O)N/N=C(\C)C1(O)Cc2c(O)c4c(c(O)c2C(OC2CC(N)C(O)C(C)O2)C1)C(=O)c1c(OC)cccc1C4=O)CC3OC1CC(N)C(O)C(C)O1` (configuration not stated), for which the GI50 in the experiment on HL-60(TB) leukemia is 0.397 µM; in the experiment with HS 578T breast it was 0.261 µM; in the experiment with IGROV1 ovarian, 0.108 µM; in the experiment with K-562 leukemia, 0.341 µM; with M14 melanoma, 0.292 µM; with OVCAR-5 ovarian, 1.02 µM. Besides, the GI50 was 0.172 µM with T-47D breast, 0.781 µM with UACC-257 melanoma and 0.158 µM in the experiment with UO-31 renal. The TGI with HL-60(TB) leukemia was found to be 4.23 µM; in the experiment on HS 578T breast, 2.3 µM; with IGROV1 ovarian, 1.08 µM; in the experiment with K-562 leukemia it was 7.69 µM; in the experiment with M14 melanoma, 2.12 µM; with OVCAR-5 ovarian, 3.68 µM. In addition, the TGI turned out to be 1.68 µM with T-47D breast, 3.28 µM in the experiment on UACC-257 melanoma and 1.09 µM with UO-31 renal.
For the molecule `N#C/C=C(\c1ccc([N+](=O)[O-])cc1)n1nnc2cc(Cl)c(Cl)cc21`, the GI50 with HL-60(TB) leukemia was 2.71 µM; in the experiment on HS 578T breast, 2.39 µM; in the experiment on IGROV1 ovarian it was 1.82 µM; in the experiment on K-562 leukemia it was 2.39 µM; in the experiment with M14 melanoma, 1.86 µM; in the experiment with OVCAR-5 ovarian, 1.95 µM. Besides, the GI50 in the experiment with SR leukemia is 1.52 µM; in the experiment with UACC-257 melanoma, 2.06 µM; in the experiment on UO-31 renal, 1.11 µM. Moreover, the TGI in the experiment on HL-60(TB) leukemia was 41.1 µM; with HS 578T breast it was 8.94 µM; in the experiment with IGROV1 ovarian, 4.08 µM; with K-562 leukemia, above 100 µM; with M14 melanoma, 4.5 µM; in the experiment with OVCAR-5 ovarian, 3.99 µM. Besides, the TGI was above 100 µM in the experiment on SR leukemia, 4.53 µM in the experiment with UACC-257 melanoma and 2.32 µM with UO-31 renal.
For `O=c1cc2oc3cc(O)c(O)cc3c(-c3ccccc3O)c-2cc1O`, the GI50 in the experiment with HL-60(TB) leukemia is 33.5 µM; in the experiment on IGROV1 ovarian it was 6.73 µM; with K-562 leukemia, 5.76 µM; in the experiment on M14 melanoma, 6.66 µM; in the experiment on OVCAR-5 ovarian it was 44.6 µM; with SR leukemia, 4.65 µM. Further, the GI50 was 9.51 µM in the experiment with T-47D breast, 20.4 µM with UACC-257 melanoma and 3.3 µM in the experiment on UO-31 renal. The TGI in the experiment with HL-60(TB) leukemia was 99.6 µM; in the experiment with IGROV1 ovarian, above 100 µM; in the experiment on K-562 leukemia, above 100 µM; in the experiment with M14 melanoma, 32.1 µM; with OVCAR-5 ovarian, above 100 µM; in the experiment on SR leukemia, above 100 µM. The TGI in the experiment with T-47D breast, in the experiment on UACC-257 melanoma and in the experiment with UO-31 renal was above 100 µM each time.
For the molecule `C=CC(=O)N1CCC(C2CCNc3c(C(N)=O)c(-c4ccc(Oc5ccccc5)cc4)nn32)CC1` (configuration not stated), the GI50 is 14.6 µM in the experiment on HL-60(TB) leukemia; 20.6 µM in the experiment on HS 578T breast; 0.796 µM with IGROV1 ovarian; 15.4 µM with M14 melanoma; 31.2 µM with OVCAR-5 ovarian; 10.4 µM with SR leukemia. The GI50 was 1.4 µM in the experiment on T-47D breast, 20.3 µM with UACC-257 melanoma and 1.94 µM in the experiment with UO-31 renal. In addition, the TGI was 40.3 µM with HL-60(TB) leukemia; 78.4 µM with HS 578T breast; 16.9 µM in the experiment on IGROV1 ovarian; 33.1 µM with M14 melanoma; above 100 µM in the experiment with OVCAR-5 ovarian; 46.8 µM in the experiment with SR leukemia. In addition, the TGI was 28.4 µM in the experiment on T-47D breast, 51.2 µM in the experiment on UACC-257 melanoma and 24.3 µM in the experiment on UO-31 renal.
Take `COc1c(OC)c(OC)c(C(=O)/C=C/c2ccccc2)c(OC)c1OC`: the TGI in the experiment on HL-60(TB) leukemia is 38.2 µM; in the experiment on HS 578T breast, above 100 µM; in the experiment on IGROV1 ovarian, 27.9 µM; with K-562 leukemia it was 55.5 µM; in the experiment with M14 melanoma it was 36.7 µM; with OVCAR-5 ovarian, 36.9 µM. Moreover, the TGI in the experiment with T-47D breast was found to be 23.7 µM; in the experiment on UACC-257 melanoma, 34.3 µM; in the experiment with UO-31 renal, 22.2 µM.

The values are drawn from PubChem BioAssay (NCI).
